Tested on: 3T3-L1 cells
Test: Lipid decomposition (glycerol secretion) in in vitro obese model of differentiated 3T3-L1 adipocytes
Format: cell-based
Settings: 24 hr
Experimental: As adipocyte precursor cells, 3T3-L1 cells (Dainippon Sumitomo Pharmaceuticals Co., Ltd.) were used. The 3T3-L1 cells were cultured in passage medium A (10% bovine serum-added DMEM supplemented with penicillin[…]streptomycin) in a 75 cm^2 flask. The 3T3-L1 cells were plated in a 24 well plate at 20000 cells/well. The next day, the medium was changed to passage medium B (10% fetal calf serum-added high glucose DMEM supplemented with penicillin-streptomycin) and, 48 hr later, the medium was changed to differentiation induction medium. The differentiation induction medium contained passage medium B as a base medium, and dexamethasone, isobutylmethylxanthine, insulin and pioglitazone at a final concentration of 0.5 μM, 500 μM, 8 μg/ml and 2 μM, respectively. Further, 48 hr later, the medium was changed to a differentiation promoting medium. The differentiation promoting medium contained passage medium B as a base medium, and insulin and pioglitazone at a final concentration of 8 μg/ml and 2 μM, respectively. 48 hr later, the medium was changed to passage medium B. Thereafter, the medium was changed to passage medium B every other day. 7 to 10 days later, differentiation of 3T3-L1 cells into mature adipocyte cells were confirmed with a phase contrast microscope, and the cells were subjected to the following test.
After removing passage medium B by an aspirator, the cells were washed with KRB-HEPES (128 mM NaCl, 10 mM NaH2PO4, 4.7 mM KCl, 1.25 mM CaCl2, 1.25 mM MgCl2, 50 mM HEPES, pH 7.4). The licorice hydrophobic extract (50 mg/ml) of Example 1 and α-lipoic acid (100 mM) as an antioxidant ingredient were each dissolved in DMSO. […] The glycerol concentration was measured using Glycerol Reagent A manufactured by Zen-Bio, and the glycerol amount per protein concentration of the cell was calculated and compared. […]
After removing passage medium B, the cells were washed with KRB-HEPES. […] The glycerol concentration was measured using Glycerol Reagent A manufactured by Zen-Bio, and the glycerol amount per protein concentration of the cell was calculated and compared. […]

Compound `C[N+](C)(C)CC(O)CC(=O)[O-]` (stereo not drawn) [carnitine] has a glycerol secretion amount (Table 3 (Example 11), carnitine 80 μM) of 43.5 ± 1.9 μM/mg protein.

In the case of `O=c1c(-c2ccc(O)cc2)coc2cc(O)cc(O)c12` [genistein], the glycerol secretion amount (Table 2 (Example 10), genistein 10 μM) is reported as 111.1 ± 6.3 μM/mg protein.

Work on `O=C(O)CCCCC1CCSS1` (stereo not drawn) [α-lipoic acid] yielded a glycerol secretion amount (Table 1 (Example 9), α-lipoic acid 30 μM) of 89.6 ± 4.8 μM/mg protein.
